Calls of active or inactive are those of the source. The calls are words filed in the database; no cut-off is given here.
Key:
MCF7 [1] = experiment: Induction of cell cycle arrest in human MCF7 cells assessed accumulation of cells at G2 phase at 4 uM measured after 48 hrs by propidium iodide staining based flow cytometric analysis (reference value: 37.81%); format: functional
MCF7 [2] = experiment: Induction of cell cycle arrest in human MCF7 cells assessed accumulation of cells at G2 phase at 8 uM measured after 48 hrs by propidium iodide staining based flow cytometric analysis (reference value: 37.81%); format: functional
MCF7 [3] = experiment: Induction of cell cycle arrest in human MCF7 cells assessed accumulation of cells at S phase at 4 uM measured after 48 hrs by propidium iodide staining based flow cytometric analysis (reference value: 27.53%); format: functional
[4] = Toxicity in BALB/c nude mouse xenografted with human MCF7 cells assessed as kidney tissue damage at 1 to 10 mg/kg, ip administered 3 times a week for 3 weeks; format: organism-based; conditions: in vivo, 504 h, dose 1-10 mg/kg
MCF7 [5] = experiment: Induction of cell cycle arrest in human MCF7 cells assessed accumulation of cells at G1 phase at 8 uM measured after 48 hrs by propidium iodide staining based flow cytometric analysis (reference value: 45.94%); format: functional
MCF7 [6] = experiment: Antitumor activity against human MCF7 cells xenografted in Balb/c nude mouse assessed as tumor growth inhibition at 1 mg/kg, ip administered 3 times a week for 3 weeks; format: functional; conditions: MCF7, 504 h, read-out: TGI
MCF7 [7] = experiment: Antiproliferative activity against human MCF7 cells assessed as growth inhibition at 3 uM after 48 hrs by MTT assay relative to control; format: functional; conditions: read-out: GI
MCF7 [8] = experiment: Antiproliferative activity against human MCF7 cells after 48 hrs by MTT assay; format: functional, cell-based; conditions: MCF7, 48 h
MCF7 [9] = experiment: Induction of cell cycle arrest in human MCF7 cells assessed accumulation of cells at S phase at 8 uM measured after 48 hrs by propidium iodide staining based flow cytometric analysis (reference value: 27.53%); format: functional
MCF7 [10] = experiment: Induction of apoptosis in human MCF7 cells assessed as early apoptotic cells at 2 to 8 uM incubated for 48 hrs by Annexin V-FITC/propidium iodide staining based flow cytometry analysis; format: functional; conditions: dose 2-8 µM
NCI/ADR-RES [11] = experiment: Induction of apoptosis in human MCF7/ADR cells assessed as increase in Bad expression at 5 to 20 uM measured after 24 hrs by Western blotting analysis; format: functional, cell-based; conditions: dose 5-20 µM
NCI/ADR-RES [12] = experiment: Reversal of multidrug resistant activity in human MCF7/ADR cells after 48 hrs by MTT assay; format: functional, cell-based
NCI/ADR-RES [13] = experiment: Induction of apoptosis in human MCF7/ADR cells assessed as increase in Bax expression at 5 to 20 uM measured after 24 hrs by Western blotting analysis; format: functional, cell-based; conditions: dose 5-20 µM
[14] = molecular target: ATP-dependent translocase ABCB1 (Homo sapiens, UniProt P08183); experiment: Inhibition of P-gp-mediated multidrug resistance in human MCF7/ADR cells at 10 to 20 uM assessed as adriamycin accumulation treated with adriamycin measured after 24 hrs by flow cytometry; format: cell-based; conditions: nci/adr-res, dose 10-20 µM
ATP-dependent translocase ABCB1, sequence (P08183 whole entry): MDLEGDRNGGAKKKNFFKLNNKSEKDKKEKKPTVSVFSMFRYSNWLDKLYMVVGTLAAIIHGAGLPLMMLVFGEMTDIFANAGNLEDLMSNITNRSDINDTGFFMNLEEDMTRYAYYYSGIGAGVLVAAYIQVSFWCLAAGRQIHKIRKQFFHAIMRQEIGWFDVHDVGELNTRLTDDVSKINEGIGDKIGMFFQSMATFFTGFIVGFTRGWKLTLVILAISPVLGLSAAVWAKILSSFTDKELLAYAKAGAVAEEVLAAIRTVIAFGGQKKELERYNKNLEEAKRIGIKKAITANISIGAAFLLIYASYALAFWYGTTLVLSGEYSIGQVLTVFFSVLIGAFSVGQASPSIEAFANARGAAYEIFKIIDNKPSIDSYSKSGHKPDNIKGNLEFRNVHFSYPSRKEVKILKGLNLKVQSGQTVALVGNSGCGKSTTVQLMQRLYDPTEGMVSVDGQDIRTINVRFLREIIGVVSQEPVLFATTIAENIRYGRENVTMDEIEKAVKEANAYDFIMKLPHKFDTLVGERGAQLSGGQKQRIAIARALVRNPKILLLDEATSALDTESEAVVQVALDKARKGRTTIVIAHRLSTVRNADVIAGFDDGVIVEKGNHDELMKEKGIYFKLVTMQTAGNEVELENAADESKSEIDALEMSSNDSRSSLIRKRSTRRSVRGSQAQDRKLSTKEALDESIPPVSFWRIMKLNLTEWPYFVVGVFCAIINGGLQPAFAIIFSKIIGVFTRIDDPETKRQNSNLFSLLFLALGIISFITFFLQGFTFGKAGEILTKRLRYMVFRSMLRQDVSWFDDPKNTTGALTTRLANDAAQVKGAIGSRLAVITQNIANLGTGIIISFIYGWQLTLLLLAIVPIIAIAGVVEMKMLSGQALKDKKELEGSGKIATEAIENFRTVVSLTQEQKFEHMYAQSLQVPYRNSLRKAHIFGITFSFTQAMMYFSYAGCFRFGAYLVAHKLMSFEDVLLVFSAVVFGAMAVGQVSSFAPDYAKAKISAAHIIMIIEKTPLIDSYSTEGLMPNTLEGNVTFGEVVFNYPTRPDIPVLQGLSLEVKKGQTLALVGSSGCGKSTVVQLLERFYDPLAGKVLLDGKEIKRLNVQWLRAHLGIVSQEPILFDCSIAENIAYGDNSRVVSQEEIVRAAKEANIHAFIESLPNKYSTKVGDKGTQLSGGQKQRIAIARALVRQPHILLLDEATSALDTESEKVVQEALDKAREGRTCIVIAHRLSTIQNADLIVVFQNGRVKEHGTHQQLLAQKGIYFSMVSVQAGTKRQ

Work on `CC1CCCCN1CCOc1ccc2c3c(nccc13)-c1ccccc1C2=O` (centres undefined) yielded an Activity (MCF7 [1]) of 32.26%, an Activity (MCF7 [2]) of 31.38% and an Activity (MCF7 [3]) of 25.08%. The Activity [4] was “Non-Toxic”, the Activity (MCF7 [5]) was 53.27% and the inhibition in vivo at 1 mg/kg (MCF7 [6]) was 32.4%. The inhibition of growth at 3 µM (MCF7 [7]) was 24.4%, the IC50 (MCF7 [8]) was 1.32 µM and the Activity (MCF7 [9]) was 24.3%. The Activity (MCF7 [10]) was 5.4%, the Activity (NCI/ADR-RES [11]) was “Active” and the IC50 (NCI/ADR-RES [12]) was 0.9 µM. The Activity (NCI/ADR-RES [13]) was “Active” and the “inhibition (INH)” value [14] was “Active”.

— ChEMBL document CHEMBL5154818, “Development of oxoisoaporphine derivatives with topoisomerase I inhibition and reversal of multidrug resistance in breast cancer MCF-7/ADR cells” (Eur J Med Chem, 2022)
